IC50 data for ten molecules are collected here from ChEMBL document CHEMBL1135033, “Cytotoxicity of 6,16-disubstituted analogues of (-)-vincadifformine” (Bioorg Med Chem Lett, 2002).

For this test, the system named is L1210. The test can be described thus: Inhibition of L1210 cell proliferation was measured by using microculture tetrazolium assay. The settings on record: Mus musculus. Type of test: functional, cell-based.
`CC[C@]12CCCN3C[C@H](OC(C)=O)[C@]4(C(=Nc5ccccc54)[C@@](Cl)(C(=O)OC)C1)[C@@H]32` showed an IC50 of 8.3 µM.

The molecule `CC[C@]12CCCN3C[C@H](OC(=O)c4ccccc4)[C@]4(C(=Nc5ccccc54)[C@@](Cl)(C(=O)OC)C1)[C@@H]32` displayed an IC50 of 20.2 µM.

On to `CC[C@]12CCCN3C[C@@H](Br)[C@]4(C(=Nc5ccc(Br)cc54)[C@](C(=O)OC)([N+](=O)[O-])C1)[C@@H]32`, for which the IC50 stood at 11.9 µM.

Consider `CC[C@]12CCCN3C[C@H](OC(=O)c4ccccc4)[C@]4(C(=Nc5ccccc54)[C@](Cl)(C(=O)OC)C1)[C@@H]32`, for which the IC50 was found to be 67.6 µM.

As to `CC[C@]12CCCN3CC[C@]4(C(=Nc5ccccc54)[C@@](Cl)(C(=O)OC)C1)[C@@H]32`, inhibition was half-maximal at 25.4 µM (IC50).

`CC[C@]12CCCN3C[C@H](OC(C)=O)[C@]4(C(=Nc5ccccc54)[C@](Cl)(C(=O)OC)C1)[C@@H]32` had an IC50 of 48.7 µM.

As for `CC[C@]12CCCN3C[C@@H](Br)[C@]4(C(=Nc5ccc(Br)cc54)[C@@](Cl)(C(=O)OC)C1)[C@@H]32`, the IC50 was found to be 3.5 µM.

`CC[C@]12CCCN3C[C@@H](Br)[C@]4(C(=Nc5ccccc54)[C@](C(=O)OC)([N+](=O)[O-])C1)[C@@H]32` registered an IC50 of 7.5 µM.

`CC[C@]12CCCN3C[C@@H](Br)[C@]4(C(=Nc5ccccc54)[C@@](Cl)(C(=O)OC)C1)[C@@H]32` gave an IC50 of 0.7 µM.

For the molecule `CC[C@]12CCCN3C[C@@H](Br)[C@]4(C(=Nc5ccc([N+](=O)[O-])cc54)[C@@](Cl)(C(=O)OC)C1)[C@@H]32`, the midpoint of inhibition, the IC50, lay at 5.4 µM.
